This note sets out measurements from the supplement of paper PMC9265050, “Inhibition of RNA Binding in SND1 Increases the Levels of miR-1-3p and Sensitizes Cancer Cells to Navitoclax” (Cancers, 2022).

The assay relates to SW480. Briefly: drug sensitivity score (DSS, integrated dose-response area); higher = more sensitive (stronger viability reduction); extreme values may be limits of the assay. The essentials: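 The drug sensitivity score is the integrated area under a fitted non-linear dose–response model. It was derived from SW480 cells with doxycycline-inducible control or SND1-targeting shRNA, induced with 0.1 µg/mL doxycycline for 7 days and plated at 1000 cells per well on 384-well plates of 525 commercially available small-molecule inhibitors at five concentrations. CellTiter-Glo measured viability after 72 h.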

Where [1] appears, read: shRNA: SND1 shRNA1 (SND1 silenced).
[2] abbreviates: shRNA: SND1 shRNA2 (SND1 silenced).
The mark [3] stands for this setting: shRNA: control shRNA (non-targeting).

In turn, `CC[C@@H]1C(=O)N(C)c2cnc(Nc3ccc(C(=O)N[C@H]4CC[C@H](N5CCN(CC6CC6)CC5)CC4)cc3OC)nc2N1C(C)C` [Volasertib] returned a drug sensitivity score under setting [1] of 13.1 DSS, a drug sensitivity score under setting [2] of 14.4 DSS and a drug sensitivity score under setting [3] of 14.8 DSS.

For `O=C(Nc1ccc2[nH]nc(-c3ccncc3)c2c1)[C@@H]1CCN(CC(=O)N2CCN(c3ccc(-c4ncccn4)cc3)CC2)C1`, the drug sensitivity score stood at 14.2 DSS under setting [1], 8.8 DSS under setting [2] and 7.9 DSS under setting [3].

In the case of `COc1cc(F)c(F)c(Nc2ccc(I)cc2F)c1NS(=O)(=O)C1(C[C@H](O)CO)CC1` [Refametinib], the drug sensitivity score was found to be 26.8 DSS under setting [1], 18 DSS under setting [2] and 11.1 DSS under setting [3].

For `COc1ccc(-c2cc3c(C)nc(N)nc3n([C@H]3CC[C@H](OCCO)CC3)c2=O)cn1`, the drug sensitivity score amounted to 17.3 DSS under setting [1], 13.9 DSS under setting [2] and 9.3 DSS under setting [3].

For `CCC(C)n1ncn(-c2ccc(N3CCN(c4ccc(OCC5COC(Cn6cncn6)(c6ccc(Cl)cc6Cl)O5)cc4)CC3)cc2)c1=O` (stereo unspecified) [Itraconazole], the drug sensitivity score worked out at 4.2 DSS under setting [1], 0.2 DSS under setting [2] and 1.5 DSS under setting [3].

As for `Nc1nc(OCc2cc(Br)cs2)c2[nH]cnc2n1` [Lomeguatrib], the drug sensitivity score stood at 0 DSS under setting [1], 1.9 DSS under setting [2] and 0.5 DSS under setting [3].

Turning to `Oc1c2ccccc2c2c3c(cccc13)N=N2`, the drug sensitivity score reads like this: under setting [1], 1.8 DSS; under setting [2], 3.4 DSS; under setting [3], 0.6 DSS.

With `O=C(O)CSc1cc(NS(=O)(=O)c2ccc(Br)cc2)c2ccccc2c1O` [UMI-77], the drug sensitivity score was found to be 14.5 DSS under setting [1], 13.4 DSS under setting [2] and 15.8 DSS under setting [3].

With `CC(=O)NCC(=O)N1[C@@H]2CC[C@H]1c1ccc(Nc3ncc(C(F)(F)F)c(NC4CCC4)n3)cc12`, the drug sensitivity score under setting [1] was found to be 17.4 DSS, the drug sensitivity score under setting [2] was determined as 14.2 DSS and the drug sensitivity score under setting [3] stood at 13.2 DSS.

For `CN(C)C(=N)NC(=N)N` [Metformin], the drug sensitivity score by setting is: under setting [1], 0 DSS; under setting [3], 1 DSS.

Consider `CNC(=O)c1cc(COc2nnc(Nc3ccc(Cl)cc3)c3ccoc23)ccn1` [Telatinib], for which the drug sensitivity score is, setting by setting: under setting [1], 0 DSS; under setting [2], 0 DSS; under setting [3], 0 DSS.

Regarding `O=c1ncn2nc(Sc3ccc(F)cc3F)ccc2c1-c1c(Cl)cccc1Cl` [VX 745], the drug sensitivity score by setting is: under setting [1], 1.4 DSS; under setting [3], 3.4 DSS.

As for `CC1CCC(n2c3cnccc3c3cnc(Nc4ccc5c(n4)CCN(C(=O)CO)C5)nc32)CC1` (stereo unspecified) [AMG-925], the drug sensitivity score came to 1.1 DSS under setting [1], 0 DSS under setting [2] and 0 DSS under setting [3].

As for `CC(C)CC(=O)Nc1n[nH]c2c1CN(C(=O)C1CCN(C)CC1)C2(C)C`, the drug sensitivity score by setting is: under setting [1], 6.1 DSS; under setting [2], 5.8 DSS; under setting [3], 10.7 DSS.

Take `C=CCc1cccc(/C=N/NC(=O)CN2CCN(Cc3ccccc3)CC2)c1O` [PAC-1]: the drug sensitivity score runs as follows: under setting [1], 6.8 DSS; under setting [2], 6.3 DSS; under setting [3], 7 DSS.

The compound `O=NN(CCCl)C(=O)NC1CCCCC1` [Lomustine] yielded a drug sensitivity score under setting [1] of 0 DSS, a drug sensitivity score under setting [2] of 0 DSS and a drug sensitivity score under setting [3] of 0 DSS.

`CS(=O)(=O)CCNCc1ccc(-c2ccc3ncnc(Nc4ccc(OCc5cccc(F)c5)c(Cl)c4)c3c2)o1` [Lapatinib]: the drug sensitivity score reads like this: under setting [1], 0 DSS; under setting [2], 0 DSS; under setting [3], 0.9 DSS.

On to `COc1ccc(-c2ccc3ncc4c(c3c2)n(-c2ccc(N3CCNCC3)c(C(F)(F)F)c2)c(=O)n4C)cn1` [NVP-BGT226], for which the drug sensitivity score by setting is: under setting [1], 18.6 DSS; under setting [2], 20.6 DSS; under setting [3], 19 DSS.

Turning to `Cc1ccc(NC(=O)c2ccc(CN3CCN(C)CC3)cc2)cc1Nc1nc(-c2cccnc2)cs1` [Masitinib], the drug sensitivity score came to 3.1 DSS under setting [1], 3.4 DSS under setting [2] and 4.6 DSS under setting [3].

Consider `Oc1ccc2c(c1)CC[C@H](c1ccccc1)[C@@H]2c1ccc(OCCN2CCCC2)cc1` [Lasofoxifene], for which the drug sensitivity score is, setting by setting: under setting [1], 0.8 DSS; under setting [2], 0.7 DSS; under setting [3], 2 DSS.

With `COc1cc2nccc(Oc3ccc(NC(=O)C4(C(=O)Nc5ccc(F)cc5)CC4)cc3)c2cc1OC` [Cabozantinib], the drug sensitivity score under setting [1] is 0 DSS, the drug sensitivity score under setting [2] turned out to be 2.7 DSS and the drug sensitivity score under setting [3] was determined as 0.6 DSS.

As for `C[C@@H](Oc1ccc2[nH]nc(/C=C/c3cnn(CCO)c3)c2c1)c1c(Cl)cncc1Cl`, the drug sensitivity score reads like this: under setting [1], 8.9 DSS; under setting [2], 3.6 DSS; under setting [3], 4.2 DSS.

`CCc1cncnc1N1CCN(Cc2nc3ccc(C(F)(F)F)cc3[nH]2)CC1`: the drug sensitivity score is, setting by setting: under setting [1], 0.3 DSS; under setting [2], 2.9 DSS; under setting [3], 2 DSS.

On to `O=C(O)c1ccc(Nc2ncc3c(n2)-c2ccc(Cl)cc2C(c2c(F)cccc2F)=NC3)cc1` [MLN-8054], for which the drug sensitivity score amounted to 6.3 DSS under setting [1] and 6.5 DSS under setting [3].

`CN1CCN(c2cc(C(=O)Nc3ccc4c(c3)-c3c(c(C(N)=O)nn3-c3ccc(F)cc3)CC4)c(Cl)cn2)CC1` [PHA 408]: the drug sensitivity score reads like this: under setting [1], 5.3 DSS; under setting [3], 5.2 DSS.

In turn, `C=CC[C@@H]1/C=C(\C)C[C@H](C)C[C@H](OC)[C@H]2O[C@@](O)(C(=O)C(=O)N3CCCC[C@H]3C(=O)O[C@H](/C(C)=C/[C@@H]3CC[C@@H](O)[C@H](OC)C3)[C@H](C)[C@@H](O)CC1=O)[C@H](C)C[C@@H]2OC` [Tacrolimus] came in with a drug sensitivity score under setting [1] of 0 DSS and a drug sensitivity score under setting [3] of 0 DSS.

As to `NC(=O)c1ccc(I)c([N+](=O)[O-])c1` [Iniparib], the drug sensitivity score is, setting by setting: under setting [1], 0.4 DSS; under setting [2], 0.1 DSS; under setting [3], 0 DSS.

For the compound `O=C1c2c(O)ccc(O)c2C(=O)c2c(NCCNCCO)ccc(NCCNCCO)c21` [Mitoxantrone], the drug sensitivity score runs as follows: under setting [1], 1.9 DSS; under setting [2], 0.3 DSS; under setting [3], 0.8 DSS.

Regarding `C#Cc1cccc(Nc2ncnc3cc(OCCOC)c(OCCOC)cc23)c1` [Erlotinib], the drug sensitivity score under setting [1] turned out to be 2.6 DSS, the drug sensitivity score under setting [2] worked out at 2.5 DSS and the drug sensitivity score under setting [3] was 2.4 DSS.

As for `CC1(C)NC(=O)N(c2ccc([N+](=O)[O-])c(C(F)(F)F)c2)C1=O` [Nilutamide], the drug sensitivity score reads like this: under setting [1], 0 DSS; under setting [2], 0 DSS; under setting [3], 0 DSS.

As to `Cc1cc(OCc2nnc(SC3CCCC3)n2-c2cccnc2)ccc1-c1ccc(S(C)(=O)=O)cc1` [NMS-873], the drug sensitivity score reads like this: under setting [1], 9.5 DSS; under setting [2], 10.5 DSS; under setting [3], 9 DSS.

For `N#CC[C@H](C1CCCC1)n1cc(-c2ncnc3[nH]ccc23)cn1` [Ruxolitinib], the drug sensitivity score is, setting by setting: under setting [1], 2.3 DSS; under setting [2], 5.6 DSS; under setting [3], 4.4 DSS.

For the compound `CC1(C)CCC(CN2CCN(c3ccc(C(=O)NS(=O)(=O)c4ccc(NCC5CCOCC5)c([N+](=O)[O-])c4)c(Oc4cnc5[nH]ccc5c4)c3)CC2)=C(c2ccc(Cl)cc2)C1` [Venetoclax], the drug sensitivity score runs as follows: under setting [1], 0 DSS; under setting [2], 0 DSS; under setting [3], 0 DSS.

In the case of `Cn1cncc1[C@@](N)(c1ccc(Cl)cc1)c1ccc2c(c1)c(-c1cccc(Cl)c1)cc(=O)n2C` [Tipifarnib], the drug sensitivity score under setting [1] was determined as 8.8 DSS, the drug sensitivity score under setting [2] was found to be 8.7 DSS and the drug sensitivity score under setting [3] is 10.2 DSS.

For the compound `COc1cc(Nc2c(C#N)cnc3cc(OCCCN4CCN(C)CC4)c(OC)cc23)c(Cl)cc1Cl` [Bosutinib], the drug sensitivity score runs as follows: under setting [1], 9.2 DSS; under setting [2], 7.3 DSS; under setting [3], 8 DSS.

Consider `Cc1[nH]c(/C=C2\C(=O)Nc3ccccc32)c(C)c1CCC(=O)O` [Orantinib], for which the drug sensitivity score runs as follows: under setting [1], 0 DSS; under setting [2], 0 DSS; under setting [3], 0.1 DSS.

Consider `CCc1cc(Nc2nccc(-c3c(-c4ccc(OC)c(C(=O)Nc5c(F)cccc5F)c4)nc4ccccn34)n2)c(OC)cc1N1CCC(N2CCN(S(C)(=O)=O)CC2)CC1`, for which the drug sensitivity score was determined as 0.2 DSS under setting [1], 2.1 DSS under setting [2] and 0 DSS under setting [3].

Turning to `COc1cc2nccc(Oc3ccc(NC(=O)NC4CC4)c(Cl)c3)c2cc1C(N)=O` [Lenvatinib], the drug sensitivity score turned out to be 1.8 DSS under setting [1], 1.3 DSS under setting [2] and 2.1 DSS under setting [3].

For `CCc1c(C(=O)C(N)=O)c2c(OCC(=O)O)cccc2n1Cc1ccccc1` [Varespladib], the drug sensitivity score is, setting by setting: under setting [1], 0 DSS; under setting [2], 1.1 DSS; under setting [3], 0 DSS.

Consider `Nc1cccc2c1C(=O)N(C1CCC(=O)NC1=O)C2=O` (stereo unspecified) [Pomalidomide], for which the drug sensitivity score turned out to be 0 DSS under setting [1], 0 DSS under setting [2] and 0 DSS under setting [3].

Take `Cc1ccc(C(=O)Nc2ccc(Oc3cc4cnn(C)c4cc3-c3cn[nH]c3)c(F)c2)c(=O)n1-c1ccc(F)cc1` [Merestinib]: the drug sensitivity score under setting [1] was 4.5 DSS, the drug sensitivity score under setting [2] worked out at 5.4 DSS and the drug sensitivity score under setting [3] amounted to 4.3 DSS.

For the compound `C[C@]1(c2nc3c(C(N)=O)cccc3[nH]2)CCCN1` [Veliparib], the drug sensitivity score runs as follows: under setting [1], 0 DSS; under setting [2], 0 DSS; under setting [3], 0 DSS.
